Measured values: patent publication US5206382A, “Indole derivatives, pharmaceutical compositions and methods of treating neurological and psychiatric disorders” (Fidia Georgetown Institute for the Neurosciences, priority 1991, dated 1993)

Assays:
[1] = molecular target: T1, MBR (mitochondrial benzodiazepine recognition site) (Rattus norvegicus, UniProt P16257); test: Displacement of ^3 H-PK11195 from mitochondrial BZD recognition site (MBR); format: binding, Sprague Dawley rat; conditions: for IC50: displacement of 1 nM ^3 H-PK11195, rat mitochondria, range in parentheses; for ^3 H-PK11195 / ^3 H-RO5-4864: ratio of the two IC50 values
T1 construct: Brain and adrenal glands were removed and homogenized with Polytron; from tissue; host or cells: mitochondrial fraction of Sprague Dawley rat brain and adrenal glands
Procedure: (§1) Mitochondrial Preparation: Sprague Dawley rats (200-250 gr.) were killed by decapitation. Brain and adrenal glands were removed and homogenized with Polytron for 15 minutes in ice cold buffer (10 mM Na/KPO4, 0.32M sucrose, pH 7.4). The homogenate was centrifuged for 15 minutes at 6,500 xg at 4° C. The resulting supernatant was centrifuged for 15 minutes at […] at 4° C. The pellet was suspended in buffer (20 times) by gentle homogenization and centrifuged at 10,000 xg at 4° C. for 15 minutes. The washed mitochondrial pellet was stored at -70° C.
(§2) For the binding assay the mitochondrial fraction was diluted with 50 mM Na/KPO4 buffer (pH 7.4) to give a final protein concentration of […] in 100 μl buffer. This suspension was incubated with 1 nM of ^3 H PK-11195 or ^3 H RO 5-4864 (50 μl) with or without 10/μM unlabeled PK-11195 or RO 5-4864 to assess the extent of total and non-specific binding. Different amounts of indole derivatives were added to the incubation medium in a volume of 50 μl. After incubation for 60 minutes at 4° C., samples were filtered and the radioactivity was measured in a scintillation counter.

[2] = molecular target: T1, MBR (mitochondrial benzodiazepine recognition site); test: Displacement of ^3 H-RO5-4864 from mitochondrial BZD recognition site (MBR); format: binding, Sprague Dawley rat; conditions: displacement of 1 nM ^3 H-RO5-4864, rat mitochondria; range in parentheses
Procedure: as §1, §2

[3] = molecular target: T2, ^3 H-ZOLPIDEM binding (crude synaptic membrane) (Rattus norvegicus, UniProt P18508+P62813); test: ^3 H-ZOLPIDEM binding, crude synaptic membranes; design: species or system Sprague Dawley rat; conditions: 2 nM ^3 H-ZOLPIDEM, rat cerebellum membranes
T2 construct: from tissue; host or cells: crude synaptic membranes of Sprague Dawley rat cerebellum
T2 sequence (P62813 28-455): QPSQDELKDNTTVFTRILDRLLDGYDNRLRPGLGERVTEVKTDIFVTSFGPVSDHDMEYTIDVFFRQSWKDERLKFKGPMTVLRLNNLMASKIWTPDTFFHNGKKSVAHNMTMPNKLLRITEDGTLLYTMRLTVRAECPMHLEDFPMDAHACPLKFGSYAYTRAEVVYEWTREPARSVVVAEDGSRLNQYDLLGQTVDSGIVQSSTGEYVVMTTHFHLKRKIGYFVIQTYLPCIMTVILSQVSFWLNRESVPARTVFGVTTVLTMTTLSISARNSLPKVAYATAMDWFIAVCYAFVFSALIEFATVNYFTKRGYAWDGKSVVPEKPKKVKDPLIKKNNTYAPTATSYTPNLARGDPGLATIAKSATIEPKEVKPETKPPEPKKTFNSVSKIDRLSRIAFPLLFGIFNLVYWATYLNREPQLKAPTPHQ
T2 sequence (P18508 39-466): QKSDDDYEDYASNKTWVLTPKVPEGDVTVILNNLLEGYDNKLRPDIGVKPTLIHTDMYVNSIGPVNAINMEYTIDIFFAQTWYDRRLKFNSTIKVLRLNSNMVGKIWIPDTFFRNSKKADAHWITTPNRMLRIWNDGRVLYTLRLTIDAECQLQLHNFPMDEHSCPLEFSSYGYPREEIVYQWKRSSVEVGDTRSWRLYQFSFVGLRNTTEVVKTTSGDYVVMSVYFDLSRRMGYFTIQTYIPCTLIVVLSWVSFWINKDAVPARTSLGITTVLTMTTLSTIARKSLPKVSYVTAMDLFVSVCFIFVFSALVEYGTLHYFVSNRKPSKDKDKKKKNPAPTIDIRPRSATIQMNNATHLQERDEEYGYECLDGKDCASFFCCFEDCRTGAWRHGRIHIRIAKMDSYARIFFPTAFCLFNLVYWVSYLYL
Procedure: (§3) Crude Synaptic Membrane Preparation: Sprague Dawley rats (200-250 gr.) were killed by decapitation. The cerebella were removed and incubated for 20 minutes in ice cold double distilled water after homogenization with Polytron. The homogenate was centrifuged at 18,000 xg at 4° C. for 10 minutes. The pellet was suspended in ice-cold buffer 50 mM Na/KPO4(pH 7.4) and centrifuged at 18,000 xg at 4° C. for 10 minutes. After two other centrifugations, the membranes were suspended in 5 ml of buffer and the proteins were measured.
(§4) The membranes were diluted with 50 mM Na/KPO4 buffer (pH 7.4) to a concentration of 150 μg of protein/ml, and 150 μl aliquots of the suspension were incubated with 50 μl of the different ligands to be tested: ^3 H-ZOLPIDEM(2 nM), ^3 H-FLUMAZENIL (2 nM), ^3 H-GABA(10 nM), ^3 H-MK 801(5 nM), ^3 H-KETANSERIN(1 nM), ^3 H-GLYCINE(20 nM), ^3 H-SPIPERONE(1 nM), ^3 H-AMPA(10 nM), ^3 H-3-PPP(1 nM), and ^3 H-NALOXONE(1 nM). Non-specific binding was assessed by displacing with 10 to 1000/μM of cold ligand. The different indole derivatives were added in a volume of 50 μl in a concentration varying from 10^-9 to 10^-3 M. The results are reported in Table I hereinbelow.

[4] = molecular target: T3, BZD binding site located on the GABAA receptor (Rattus norvegicus, UniProt P18508+P62813); test: ^3 H-FLUMAZENIL binding, crude synaptic membranes; design: species or system Sprague Dawley rat; conditions: 2 nM ^3 H-FLUMAZENIL, rat cerebellum membranes
T3 construct: The cerebella were removed and incubated for 20 minutes in ice cold double distilled water; from tissue; host or cells: crude synaptic membranes of Sprague Dawley rat cerebellum
T3 sequence (P62813 28-455): as the sequence (P62813 28-455) above
T3 sequence (P18508 39-466): as the sequence (P18508 39-466) above
Procedure: as §3
as §4, with “ligand.” for “ligand. The different indole derivatives were added in a volume of 50 μl in a concentration varying from 10^-9 to 10^-3 M. The results are reported in Table I hereinbelow.”

Sprague Dawley rats = test: Elevated X maze test; format: in vivo, Sprague Dawley rat; conditions: for Entries in open arms, test after 10 min injection / Entries in open arms, test after 20 min injection / Entries in open arms, test after 30 min injection: 20 mg/kg i.v., rats; for behavioral output of rats in the elevated X maze test: in words
Procedure: The elevated X maze is a behavioral test to detect anxiolytic drugs in rodents. […] The plus-maze consists of two open arms (43×8 cm) and two similarly sized enclosed arms with 9 cm high walls, arranged so that the arms of the same type are opposite each other. There is a central square of 8 cm. The apparatus is elevated to a height of 10 cm and each arm is divided into 3 squares.
Sprague Dawley rats weighing 200-250 gr. were housed in a room with a 12 hour light: 12 hour dark cycle and were allowed free access to food and water. After an i.v. injection of different indole derivatives, the rats were kept separated for 10, 20 or 30 minutes before testing. The testing period commenced when each animal was placed onto the central square of the maze. The number of entries in each arm was then recorded for 5 minutes. The maze was cleaned with water after each trial. The number of entries in the open arms provided a measure of anxiolytic activity of the drugs.

[5] = system: mitochondrial pregnenolone formation, C6-2B glioma cells; test: Pregnenolone formation in glial mitochondria (C6-2B glioma cells); format: biochemical; conditions: for Effective concentration, maximal / EC50: C6 glial cell mitochondria, 15 minutes at 37° C.; for Stimulation %: pregnenolone formation, increase over the control; for EC50: read-out: Effective concentration, 50%
Procedure: The mixture was preincubated for 5 minutes at 37° C. The incubation mixture was extracted with 5 ml chloroform/methanol (2:1, vol/vol), and the organic phase was evaporated to dryness. Pregnenolone was measured by a specific radioimmunoassay using an antibody obtained from Radioassay Systems Laboratories, Carson, Calif.

[6] = molecular target: ^3 H-GABA binding (crude synaptic membrane); test: ^3 H-GABA binding, crude synaptic membranes; design: species or system Sprague Dawley rat; conditions: 10 nM ^3 H-GABA, rat cerebellum membranes
Procedure: as §3, §4

| SMILES | IC50 [1] [nM] | ^3 H-PK11195 / ^3 H-RO5-4864 [1] | IC50 [2] [nM] | IC50 [3] [nM] | IC50 [4] [nM] | IC50 [6] [nM] | binding to MBR in words ([1]; Tables I and II compared) | EC50 [5] [nM] | Entries in open arms, test after 10 min injection (Sprague Dawley rats) | Entries in open arms, test after 20 min injection (Sprague Dawley rats) | Entries in open arms, test after 30 min injection (Sprague Dawley rats) | behavioral output of rats in the elevated X maze test (Sprague Dawley rats) | Effective concentration, maximal [5] | Stimulation % [5] | intrinsic efficacy (pregnenolone formation) ([5]; in words) |
| --- | --- | --- | --- | --- | --- | --- | --- | --- | --- | --- | --- | --- | --- | --- | --- |
| CCCN(CCC)C(=O)C=Cc1c(-c2ccc(Cl)cc2)[nH]c2ccccc12 [compound 24] | 700 | 1.1 | 600 | > 1000 | > 1000 | – | – | – | 3 | 2 | 3 | increase the behavioral output | – | – | – |
| Cc1ccc(-c2[nH]c3ccc(C)cc3c2CC(=O)N(C)C)cc1 [Compound No. 9] | > 1000 | > 3 | 255 | > 1000 | – | – | – | – | – | – | – | – | > 10^-6 M | none | – |
| CCCN(CCC)C(=O)Cc1c(-c2cccc(Cl)c2)[nH]c2ccccc12 [compound 21] | 100 | 1.2 | 80 | – | > 1000 | > 1000 | – | – | 2 | 4 | 0 | increase the behavioral output | – | – | – |
| CN(C)C(=O)Cc1c(-c2ccccc2)[nH]c2ccccc12 [Compound No. 7] | 600 | 1 | 600 | > 1000 | > 1000 | – | relatively high affinity | 10 | – | – | – | – | 10^-7 M | 131% | low intrinsic efficacy |
| CCCN(CCC)C(=O)Cc1c(-c2ccc(C)cc2)[nH]c2ccc(C)cc12 [Compound No. 8] | 68.5 | 1.6 | 41.5 | > 1000 | – | – | – | 33 | – | – | – | – | 10^-7 M | 220% | – |
| CCCN(CCC)C(=O)CCc1c(-c2ccc(Cl)cc2)[nH]c2ccc(Cl)cc12 [compound 11] | 180 | 1.5 | 120 | > 1000 | > 1000 | – | – | – | – | – | – | – | – | – | – |
| O=C(Cc1c(-c2ccccc2)[nH]c2ccccc12)N1CCCCC1 [Compound No. 3] | 84 | 1.4 | 59 | > 1000 | – | – | – | – | – | – | – | – | – | – | – |
| CCCN(CCC)C(=O)Cc1c(-c2ccc(Cl)cc2)n(C)c2ccccc12 [compound 22] | 200 | 1 | 200 | – | > 1000 | – | – | – | 3 | 2 | 6 | increase the behavioral output | 10^-8 M | 170% | – |
| CCCN(CCC)C(=O)Cc1c(-c2ccc(F)cc2)[nH]c2ccccc12 [compound 20] | 100 | 2 | 50 | – | > 1000 | > 1000 | – | 0.33 | 3 | 2 | 6 | increase the behavioral output | 10^-9 M | 183% | – |
| CCCN(CCC)C(=O)Cc1c(-c2ccc(Br)cc2)[nH]c2ccccc12 [compound 18] | 75 | 2 | 36 | – | > 1000 | – | – | – | 2 | – | – | increase the behavioral output | – | – | – |
| CCCN(CCC)C(=O)C(C)c1c(-c2ccc(Cl)cc2)[nH]c2ccccc12 (stereo not drawn) [compound 19] | > 1000 | – | > 1000 | – | > 1000 | – | – | – | 1 | – | – | increase the behavioral output | – | – | – |
| c1ccc(-c2[nH]c3ccccc3c2CC2=NCCN2)cc1 [Compound No. 15] | > 1000 | – | > 1000 | – | > 1000 | – | – | – | – | – | – | – | – | – | – |

Stronger by IC50 [1], values ahead:

| IC50 [1] [nM] | ^3 H-PK11195 / ^3 H-RO5-4864 [1] | IC50 [2] [nM] | IC50 [3] [nM] | IC50 [4] [nM] | IC50 [6] [nM] | binding to MBR in words ([1]; Tables I and II compared) | EC50 [5] [nM] | SMILES | Entries in open arms, test after 10 min injection (Sprague Dawley rats) | Entries in open arms, test after 20 min injection (Sprague Dawley rats) | Entries in open arms, test after 30 min injection (Sprague Dawley rats) | behavioral output of rats in the elevated X maze test (Sprague Dawley rats) | Effective concentration, maximal [5] | Stimulation % [5] | intrinsic efficacy (pregnenolone formation) ([5]; in words) |
| --- | --- | --- | --- | --- | --- | --- | --- | --- | --- | --- | --- | --- | --- | --- | --- |
| 24 | 1.6 | 14.5 | > 1000 | > 1000 | – | – | – | CCCN(CCC)C(=O)Cc1c(-c2cccs2)[nH]c2ccccc12 [Compound No. 10] | – | – | – | – | – | – | – |
| 45 | 1.1 | 40 | > 1000 | > 1000 | – | – | – | CCCN(CCC)C(=O)Cc1c(-c2ccc(Cl)cc2)[nH]c2ccc(Cl)cc12 [Compound No. 6] | – | – | – | – | – | – | – |
| 30 | 0.75 | 40 | – | > 1000 | – | – | – | CCCN(CCC)C(=O)Cc1c2n(c3ccccc13)Cc1ccccc1-2 [Compound No. 16] | – | – | – | – | – | – | – |
| 50 | 1.3 | 37.5 | – | > 1000 | – | – | – | CCCN(CCC)C(=O)Cc1c(-c2cccs2)[nH]c2ccc(Cl)cc12 [compound 17] | – | – | – | – | – | – | – |
| 28.5 | 1.1 | 25.5 | > 1000 | > 1000 | > 1000 | – | – | CCCN(CCC)C(=O)Cc1c(-c2ccc(Cl)cc2)[nH]c2ccccc12 [compound 5] | – | – | – | – | – | – | – |
| 57.5 | 1.8 | 32.5 | > 1000 | > 1000 | > 1000 | – | – | CCCCCCNC(=O)Cc1c(-c2ccccc2)[nH]c2ccccc12 [Compound No. 13] | 2 | 2 | 3 | increase the behavioral output | – | – | – |
